Measurements reported in patent publication US20260097091A1, “ADMINISTRATION OF GLUTATHIONE TRISULFIDE TO AMELIORATE PERIPHERAL NEUROPATHY” (The General Hospital Corporation, priority 2022, published 2026).

Key:
[1] = system: MDA-MB-231 human breast cancer cells; test: MDA-MB-231 cell viability by LDH Cytotoxicity Detection assay; assay type: cell-based; settings: 24 hours incubation
Procedure: To examine whether co-administration of GSSSG affects anti-tumor effects of paclitaxel, we conducted experiments using MDA-MB-231, a human breast cancer cell line (HTB-26, ATCC). Cells were cultured in the medium of 90% RPMI1640 (Corning, Cat No. 10-040-CV), 10% FBS, and 1% penicillin/streptomycin. After being seeded into a 96-well plate at the density of 20,000/well and cultured overnight, they were exposed to different concentrations of paclitaxel (0.125 μM, 0.25 μM, 0.5 μM, 1 μM, and 2 μM) and incubated for 24 hours. Cell viability was evaluated by LDH Cytotoxicity Detection Kit (Roche, Cat No. 11644793001). Briefly, a plate was centrifuged at 250×g for 10 minutes. Cells were washed with PBS and incubated with 100 μl of 1% Triton X-100 at 37° C. for 30 minutes. After mixing with assay enzyme for 30 minutes at 25° C., absorbance was measured at wavelength 492 nm to determine cell viability. Inhibitory effects of paclitaxel were calculated by half-maximal inhibitory concentration (IC50). We utilized the IC50 of paclitaxel obtained with LDH assay to examine the anti-tumor effect of paclitaxel and co-administration of GSSSG using the trypan blue exclusion assay. […] MDA-MB-231 cells were seeded 5.6×10,000/well in a 6-well plate and incubated overnight. […] After being stripped by 0.25% trypsin, live cells were counted under 0.04% trypan blue. Five wells were evaluated per group.

[2] = system: primary cortical neurons; test: axonal degeneration in primary cortical neurons; assay type: cell-based, mice; settings: 10 μM of GSSSG
[3] = tissue distribution of orally administered ^34S-labeled GSSSG by LC-MS/MS; assay type: in vivo, mice; settings: 2 hours after oral ^34S-labelled GSSSG 50 mg/kg; mice
Procedure: To determine the tissue distribution of orally-administered GSSSG, ^34S-labelled GSSSG was administered by gavage to each of four mice. ^34S-labelled GSSSG was synthesized and provided by Kyowa Hakko Bio CO., LTD. Two hours after a single dose of ^34S-GSSSG, DRG, lumber spinal cord, brain, liver, and plasma were obtained and snap frozen for later analysis.
We examined whether administrated GSSSG via oral gavage reaches peripheral nervous system using liquid chromatography with tandem mass spectrometry (LC-MS/MS). Fifty mg/kg of ^34S-labeled GSSSG (in which the middle sulfur, that is a sulfane sulfur, was replaced to ^34S; G-^32S-^34S-^32S-G) was orally administered to mice. Two hours after administration, plasma and tissue from liver, brain, lumbar spinal cord, and lumbar DRG (L1 to L6) were collected and immediately frozen at −80° C. Tissues were homogenized with 5 mM of β-(4-hydroxyphenyl)ethyl iodoacetamide (HPE-IAM) (Santa Cruz, Cat No. SC-473766) and incubated for 20 minutes at 37° C. to promote HPE-IAM reaction that stabilizes persulfide residues. Proteins were removed by centrifugation at 15,000 g for 10 minutes at 4° C., and total protein concentration was measured by BCA assay. The supernatant was diluted by 0.1% formic acid for LC-MS/MS analysis. The amount of ^34S-labeled GSSSG was quantified in selective reaction monitoring (SRM) with precursor ion (647.14 m/z), product ion (389.1 m/z), and HCD (21 v) and normalized by protein concentration. The ratio of ^34S-labeled reactive sulfur species to endogenous (^32S) reactive sulfur species (GSSH, CysSSH, and CysSSSCys) were also calculated from their peak area measured by Dionex UltiMate 3000 RS UPLC-Orbitrap Exploris 480 mass spectrometer (Thermo Scientific Scientific, Waltham, MA, USA). In brief, samples were subjected to the UPLC system with a Hypersil Gold C-18 (100×2.1 mm, 3.0 μm, Thermo Fisher Scientific) column and they were eluted by using a linear methanol gradient of the mobile phase (0-90%, 15 minutes) in the presence of 0.1% formic acid at a flow rate of 0.2 ml/minutes at 40 degrees. The raw data were obtained by Compound Discoverer software 3.3. Molecular weight of reactive sulfur species combined with HPE-IAM were reported in previous studies.

| plasma level of GSSSG [3] | SMILES | IC50 [1] | axonal degeneration in primary cortical neurons [2] |
| --- | --- | --- | --- |
|  | CC(=O)O[C@H]1C(=O)[C@@]2(C)[C@H]([C@H](OC(=O)c3ccccc3)[C@]3(O)C[C@H](OC(=O)[C@H](O)[C@@H](NC(=O)c4ccccc4)c4ccccc4)C(C)=C1C3(C)C)[C@]1(OC(C)=O)CO[C@@H]1C[C@@H]2O [paclitaxel, Paclitaxel, reference compound] | 1660 nM |  |
| 58 nM | N[C@@H](CCC(=O)N[C@@H](CSSSC[C@H](NC(=O)CC[C@H](N)C(=O)O)C(=O)NCC(=O)O)C(=O)NCC(=O)O)C(=O)O [GSSSG, glutathione trisulfide] |  | prevented axonal degeneration |
